Reference: US11472793B2, “Inhibitors of cysteine proteases and methods of use thereof” (priority 2020, dated 2022)
Read-outs that look alike come from different tables or passages of the source.

What was measured:
[1] = biological target: 229E mPRO (Human coronavirus 229E (HCoV-229E), UniProt P0C6X1); assay: 229E mPRO enzymatic assay; format: biochemical, Human Coronavirus (HCov) 229E
Method: Compounds were assayed using standard methods to assess compound activity and IC50. […] The assay buffer contained 20 mM of Tris-HCl (pH 7.3), 100 mM of NaCl, 1 mM of EDTA, 5 mM of TCEP and 0.1% BSA.
The compounds were added to an assay plate.
IC50 values of compounds were calculated with the GraphPad Prism software using the nonlinear regression model of log(inhibitor) vs. response—Variable slope (four parameters). The inhibition activity was calculated using the formula below, IC50 values was calculated using the Inhibition % data. Inhibition %=[(Sample−Average ZPE)/(Average HPE−Average ZPE)]*100%
^#HEP: Hundred percent effect controls. Containing substrate+enzyme+1 μM GC376.
Containing enzyme+substrate, no compound.
Sample: Compound activity testing wells. Containing compound+enzyme+substrate.
BG: Compound background control wells. Containing compound+substrate, no enzyme.

[2] = tested on: HCoV 229E; assay: HCoV 229E cytopathic effect (CPE) assay; format: cell-based, Human Coronavirus (HCov) 229E; conditions: read-out: 229E CPE EC50 (μM)
Method: The antiviral activity of compounds was calculated based on the protection of the virus-induced CPE at each concentration normalized by the virus control.
Reagents and instruments used in this assay include luminescent cell viability assay kit CellTiter Glo (Promega) and Microplate Reader Synergy2 (BioTek).
Cytopathic effect (CPE) was measured by CellTiter Glo following the manufacturer's manual. The antiviral activity of compounds was calculated based on the protection of the virus-induced CPE at each concentration normalized by the virus control.

Sequence of 229E mPRO (P0C6X1 2966-3267 limits assumed): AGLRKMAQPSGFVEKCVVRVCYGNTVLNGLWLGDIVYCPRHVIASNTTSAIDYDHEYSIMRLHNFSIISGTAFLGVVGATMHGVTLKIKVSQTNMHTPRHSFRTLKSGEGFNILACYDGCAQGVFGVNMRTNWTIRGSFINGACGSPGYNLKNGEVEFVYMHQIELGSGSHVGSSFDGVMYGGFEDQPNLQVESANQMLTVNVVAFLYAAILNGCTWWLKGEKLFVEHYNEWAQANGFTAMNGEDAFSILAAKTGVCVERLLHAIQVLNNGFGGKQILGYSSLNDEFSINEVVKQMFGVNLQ

Work on COc1cccc2[nH]c(C(=O)N3C[C@@H]4CC[C@@H]4[C@H]3C(=O)N[C@H](C#N)C[C@@H]3CCNC3=O)cc12 (single isomer, unassigned) [547 (Isomer 2)] yielded an IC50 ([1]; read-out: 229E mPRO IC50) of under 2 µM.
Work on N#C[C@H](C[C@@H]1CCCNC1=O)NC(=O)C1CC2(CCC2)CN1C(=O)c1cc2cccc(Cl)c2[nH]1 (single isomer, unassigned) [729 (Isomer 1)] yielded an IC50 ([1]; read-out: 229E mPRO IC50) of under 2 µM.
N#C[C@H](C[C@@H]1CCCNC1=O)NC(=O)C1CC2(CCC2)CN1C(=O)c1cc2cccc(Cl)c2[nH]1 (single isomer, unassigned) [731 (Isomer 1)] showed an IC50 [1] of under 2 µM and an EC50 [2] of under 2 µM.
Work on N#C[C@H](C[C@@H]1CCCNC1=O)NC(=O)C1CC2(CN1C(=O)c1cc3cccc(Cl)c3[nH]1)CC(F)(F)C2 (single isomer, unassigned) [743 (Isomer 2)] yielded an IC50 [1] of under 2 µM and an EC50 [2] of under 2 µM.
